Data as given in patent US20220388953A1, “COMPOUNDS WITH ANTIMICROBIAL ACTIVITY” (The Hong Kong Polytechnic University, priority 2018, published 2022).
Values after ≈ are worked out from the molar mass of the structure shown. Where two headings read alike, the source gives them in different places.

How the values were obtained:
β′ CH −σ^A interaction = test: ELISA-based binding assay using σ^A and a GST-tagged β′ subunit fragment (β′-CH); parameters: species or system Bacillus subtilis; conditions: inhibitor compounds used at 500 μM (FIG. 3)
Method: FIG. 3 depicts a graph showing assay results of hit compound activity determined by ELISA of the β′ CH −σ^A interaction. Inhibitor compounds C1-C7 were used at 500 μM.

[1] = system: Streptococcus pneumoniae (Klein) Chester (ATCC 49619); test: Antimicrobial assay, broth microdilution (CLSI), MIC; format: cell-based
Method: C3 derivatives were synthesized and antimicrobial activity measured against Streptococcus pneumoniae (MIC, minimum inhibitory concentration).
Bacterial Strains was used in this study is Streptococcus pneumoniae (Klein) Chester (ATCC® 49619™)
The antimicrobial activity of the compounds was determined by broth microdilution according to the Clinical & Laboratory Standards Institute (CLSI) guidelines. The test medium was cation-adjusted Mueller-Hinton broth (MH). Serial two-fold dilutions were performed for the tested chemicals starting from 256 μg/mL to 0.5 μg/mL, and the bacterial cell inoculum was adjusted to approximately 5×10^5 CFU/mL. Results were taken after 20 h of incubation at 37° C. The MIC was defined as the lowest concentration of antibiotic with no visible growth. Experiments were performed in duplicates.

[2] = ATCC49619, Table 1, Streptococcus pneumoniae ATCC 49619, 20 h at 37° C., read-out: MIC
[3] = Streptococcus pneumoniae, ATCC49619, 20 h

SMILES | MIC [1, 2] | melting point | inhibitory activity against the binding of σ^A and β′ fragments (β′ CH −σ^A interaction) | MIC [1, 3]
Nc1ccccc1Sc1ccc(C(=O)c2ccccc2C(=O)O)cc1[N+](=O)[O-] [C3-1, 2-(4-((2-Aminophenyl)thio)-3-nitrobenzoyl)benzoic Acid] |  |  | possessed inhibitory activity | 
CC(=O)Nc1cccc(Sc2ccc(C(=O)c3ccccc3C(=O)O)cc2[N+](=O)[O-])c1 [C3-8, 2-(4-((3-Acetamidophenyl)thio)-3-nitrobenzoyl)benzoic Acid] | 256 µg/mL (≈ 587 µM) | 144 to 146 °C |  | 
O=C(Nc1cccc(Sc2ccc(C(=O)c3ccccc3C(=O)O)cc2[N+](=O)[O-])c1)c1ccccc1 [C3-9, 2-(4-((3-Benzamidophenyl)thio)-3-nitrobenzoyl)benzoic Acid] | 32 µg/mL (≈ 64.2 µM) | 144 to 145 °C |  | 
O=C(O)c1ccccc1C(=O)c1ccc(Sc2ccc(Cl)cc2Cl)c([N+](=O)[O-])c1 [C3-11, 2-(4-((2,4-Dichlorophenyl)thio)-3-nitrobenzoyl)benzoic Acid] |  | 260 to 262 °C |  | 32 µg/mL (≈ 71.4 µM)
Cc1ccc(Sc2ccc(C(=O)c3ccccc3C(=O)O)cc2[N+](=O)[O-])c(C)c1 [C3-12, 2-(4-((2,4-Dimethylphenyl)thio)-3-nitrobenzoyl)benzoic Acid] |  | 240 to 242 °C |  | 32 µg/mL (≈ 78.5 µM)
CCN(CC)C(=O)c1ccc(Sc2ccc(C(=O)c3ccccc3C(=O)O)cc2[N+](=O)[O-])c([N+](=O)[O-])c1 [C3-14, 2-(4-((4-(Diethylcarbamoyl)-2-nitrophenyl)thio)-3-nitrobenzoyl)benzoic Acid] |  | 129 to 130 °C |  | 256 µg/mL (≈ 489 µM)
Cc1cccc([N+](=O)[O-])c1Sc1ccc(C(=O)c2ccccc2C(=O)O)cc1[N+](=O)[O-] [C3-15, 2-(4-((2-Methyl-6-nitrophenyl)thio)-3-nitrobenzoyl)benzoic Acid] |  | 269 to 271 °C |  | 128 µg/mL (≈ 292 µM)
Nc1ccccc1Nc1ccc(C(=O)c2ccccc2C(=O)O)cc1[N+](=O)[O-] [C3-17, 2-(4-((2-Aminophenyl)amino)-3-nitrobenzoyl)benzoic Acid] |  | 201 to 202 °C |  | > 256 µg/mL
O=C(O)c1ccccc1C(=O)c1ccc(Nc2ccc(Cl)c(Cl)c2)c([N+](=O)[O-])c1 [C3-23, 2-(4-((3,4-Dichlorophenyl)amino)-3-nitrobenzoyl)benzoic Acid] |  | 115 to 117 °C |  | 64 µg/mL (≈ 148 µM)
O=C(O)c1ccccc1C(=O)c1ccc(Nc2ccccc2)c([N+](=O)[O-])c1 [C3-25, 2-(3-Nitro-4-(phenylamino)benzoyl)benzoic Acid] |  | 184 to 186 °C |  | 256 µg/mL (≈ 707 µM)

Now from value to molecule, other results behind:

MIC [1, 2] | melting point | SMILES | inhibitory activity against the binding of σ^A and β′ fragments (β′ CH −σ^A interaction) | MIC [1, 3]
256 µg/mL (≈ 668 µM) | 198 to 199 °C | Cc1occc1Sc1ccc(C(=O)c2ccccc2C(=O)O)cc1[N+](=O)[O-] [C3-16, 2-(4-((2-Methylfuran-3-yl)thio)-3-nitrobenzoyl)benzoic Acid] |  | 
128 µg/mL (≈ 340 µM) | 90 to 92 °C | Cc1cccc(Nc2ccc(C(=O)c3ccccc3C(=O)O)cc2[N+](=O)[O-])c1 [C3-18, 2-(3-Nitro-4-(m-tolylamino)benzoyl)benzoic Acid] |  | 
> 256 µg/mL | 132 to 134 °C | O=C(O)c1ccccc1C(=O)c1ccc(Nc2cccc(CO)c2)c([N+](=O)[O-])c1 [C3-19, 2-(4-((3-(Hydroxymethyl)phenyl)amino)-3-nitrobenzoyl)benzoic Acid] |  | 
256 µg/mL (≈ 612 µM) | 110 to 112 °C | CC(C)(C)c1cccc(Nc2ccc(C(=O)c3ccccc3C(=O)O)cc2[N+](=O)[O-])c1 [C3-21, 2-(4-((3-(tert-Butyl)phenyl)amino)-3-nitrobenzoyl)benzoic Acid] |  | 
> 256 µg/mL | 139 to 141 °C | NC(=O)c1cccc(Nc2ccc(C(=O)c3ccccc3C(=O)O)cc2[N+](=O)[O-])c1 [C3-22, 2-(4-((3-Carbamoylphenyl)amino)-3-nitrobenzoyl)benzoic Acid] |  | 
> 256 µg/mL | 225 to 226 °C | COc1ccc(Nc2ccc(C(=O)c3ccccc3C(=O)O)cc2[N+](=O)[O-])cc1 [C3-24, 2-(4-((4-Methoxyphenyl)amino)-3-nitrobenzoyl)benzoic Acid] |  | 
> 256 µg/mL | 151 to 153 °C | O=C(O)c1ccccc1C(=O)c1ccc(Nc2cccc3cccnc23)c([N+](=O)[O-])c1 [C3-26, 2-(3-Nitro-4-(quinolin-8-ylamino)benzoyl)benzoic Acid] |  | 
> 256 µg/mL | 99 to 100 °C | O=C(O)c1ccccc1C(=O)c1ccc(Nc2nccs2)c([N+](=O)[O-])c1 [C3-27, 2-(3-Nitro-4-(thiazol-2-ylamino)benzoyl)benzoic Acid] |  | 
256 µg/mL (≈ 680 µM) | 88 to 90 °C | O=C(O)c1ccccc1C(=O)c1ccc(NCc2ccccc2)c([N+](=O)[O-])c1 [C3-29, 2-(4-(Benzylamino)-3-nitrobenzoyl)benzoic Acid] |  | 
